Measurements as given in patent US8277777B2, “Compound having affinity for amyloid” (Nihon Medi-Physics Co., Ltd., priority 2006, dated 2012).
Where two headings read alike, the source gives them in different places.

Legend:
[1] = test system: Salmonella typhimurium TA98 and TA100; assay: Ames test, overall judgment; type: cell-based; conditions: regardless of addition of S9mix
Protocol: (§1) In order to examine mutagenicity of Compound 1, Compound 2 and Compound 3, reverse mutation test using Salmonella typhimurium TA98 and TA100 (hereinafter referred to as Ames test) was conducted.
(§2) The test was conducted without addition of S9mix and with addition of S9mix. Dimethylsulfoxide was used as a negative control. A positive control was 2-(2-furyl)-3-(5-nitro-2-furyl)acrylamide in case S9mix was not added, and 2-aminoanthracene in case S9 mix was added.
(§3) The amount of each sample to be added to the test plate was 7 dosages (geometric ratio 4) with the maximum dose being 1250 μg/plate for Compound 1, and 7 dosages (geometric ratio 3) with the maximum dose being […] for Compound 2 and Compound 3. After a sample to be examined and a strain (TA98 or TA100), or a sample to be examined, S9mix and the strain were mixed together, the mixture was multilayered using soft agar on a medium of a test plate, and then incubated at 37° C. for 48 hours.

[2] = test system: Salmonella typhimurium TA100; assay: reverse mutation test (Ames test), TA100; type: cell-based
Protocol: as §1, §2, §3

[3] = test system: Salmonella typhimurium TA98; assay: reverse mutation test (Ames test), TA98; type: cell-based
Protocol: as §1, §2, §3

[4] = biological target: T1, amyloid (aggregated Aβ1-40) (Homo sapiens, UniProt P05067); assay: in vitro amyloid binding test (inhibition of [125I]3′-I-BTA-0 binding); conditions: [125I]3′-I-BTA-0 400 pmol/L, amyloid 1 μmol/L, 0.1% BSA phosphate buffer pH 7.4, 22°C, 3 hours
T1 construct: purchased Peptide Institute, INC
T1 sequence (P05067 672-711 limits assumed): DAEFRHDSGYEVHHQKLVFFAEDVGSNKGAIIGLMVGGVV
Protocol: The resulting samples were placed in each well (about 0.3 mL in volume) of a 96-well microplate.
The measured radioactivity level was defined as the background radioactivity level, and used in the calculation of the inhibition ratio (hereinafter referred to as BG).
(9) Using the radioactivity levels measured above in (7) and (8), the inhibition ratio was determined by the following formula (1).
A graph in which values converted by probit transformation from the obtained inhibition ratios were plotted relative to logarithms of concentrations of compounds for evaluation was prepared to obtain an approximate straight line by the least square method. Using the line, the concentration of each compound for evaluation was determined, at which the radioactivity level is half of the level of the sample free from each compound for evaluation, and was defined as a 50% inhibition concentration of each compound (hereinafter referred to as IC50% value).

[5] = partition coefficient based on HPLC; type: physicochemical; conditions: mobile phase 50 mM triethylamine phosphate (pH 7.2)/acetonitrile=40/60, formula (4)
Protocol: The partition coefficient by HPLC (hereinafter referred to as log PHPLC) was measured by the following method.
First, compounds for evaluation shown in Table 5 were dissolved at a concentration of 1 mg/mL in methanol containing 10% dimethylsulfoxide to prepare sample solutions. One μL of the sample solution was subjected to HPLC analysis under the following conditions to determine the elution time (tO) of the solvent and the elution time (tR) of each compound.
Column: Prodigy ODS (3) (product name; manufactured by phenomenex; size: 4.6×250 mm)
Mobile phase: a mixed solution of 50 mM triethylamine phosphate (pH 7.2)/acetonitrile=40/60
Detector: ultraviolet visible absorptiometer (detection wavelength: 282 nm)
Using the obtained tO and tR, the retention factor (hereinafter referred to as K′HPLC value) of each compound for evaluation was determined according to the calculation formula (3). K′HPLC=(tR−t0)/t0 (3) […]
Using K′HPLC obtained for each compound for evaluation, the log PHPLC value of each compound for evaluation was determined according to the above calculation formula (4).

[6] = [125I]-labeled, normal mice, cited from earlier work; for transfer into brain: 2 minutes after administration
[7] = partition coefficient based on the octanol extraction method; type: physicochemical; conditions: octanol / 10 mmol/L phosphate buffer (pH 7.4), radioactivity
Protocol: Partition coefficients based on the octanol extraction method (hereinafter referred to as log Poctanol) were measured, which are generally used as an indicator of permeability of compounds through the blood-brain barrier (hereinafter referred to as BBB).
To 2 mL of octanol, 10 μL of a solution containing Compound 4 (Example 5) and 2 mL of a 10 mmol/L phosphate buffer (pH 7.4) were added and stirred for 30 seconds. After the mixture was centrifuged (2000 rpm×60 min.) with a low-speed centrifuge (model: […] CT4D manufactured by Hitachi Koki Co., Ltd.), the octanol layer and the water layer were sampled each in an amount of 1 mL, and subjected to measurement of radioactivity with an autowell gamma system (manufactured by Aloka, Type: ARC-301B). Using the obtained radioactivity, log Poctanol was calculated in accordance with the equation (2).

[8] = transferability into brain and clearance; conditions: rats, intravenous injection
Protocol: Using Compound 4, a time course change of radioactive accumulation in brain of male Wistar rats (7-week old) was measured.
The rats were sacrificed by bleeding from abdominal artery, and brains were removed and subjected to measurement of radioactivity (hereinafter referred to as A in this Example) with an autowell gamma system (Type: ARC-301B manufactured by Aloka Co., Ltd.) and further subjected to measurement of mass of brains 2, 5, 30 and 60 minutes after the injection. Also, radioactivity (hereinafter referred to as B in this Example) of 0.05 mL of a 1000-fold diluted solution of the injected solution was measured in the same manner as above. Using these measurement results, radioactive distributions per unit weight of brain (% ID/g) at the respective time points were calculated in accordance with the following formula (5). Three animals were used for experiment at the respective time points.

[9] = biological target: T2, intracerebral amyloid (aggregated Aβ1-42 injected into amygdaloid nucleus) (Homo sapiens, UniProt P05067); assay: confirmation of imaging of amyloid in brain (autoradiogram of brain slice); type: in vivo, male Wistar rat; conditions: rat, tail vein, brain removed 30 minutes after the injection
T2 construct: dissolving Aβ1-42 (Wako Pure Chemical Industries, Ltd.) in a phosphate buffer (pH 7.4); purchased Wako Pure Chemical Industries, Ltd
T2 sequence (P05067 672-713): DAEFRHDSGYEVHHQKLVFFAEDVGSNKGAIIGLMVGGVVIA
Protocol: The following experiment was carried out in order to examine whether amyloid in brain can be imaged by the compound of the present invention.
(1) A 1 mg/mL suspension of aggregated Aβ (hereinafter referred to as amyloid suspension in this Example) was obtained by dissolving Aβ1-42 (Wako Pure Chemical Industries, Ltd.) in a phosphate buffer (pH 7.4), followed by shaking at 37° C. for 72 hours.
(2) 2.5 μL (corresponding to […]) of the amyloid suspension was injected into an amygdaloid nucleus on one side of a male Wistar rat (7-week old). As a control, 2.5 μL of a phosphate buffered physiological saline solution (pH 7.4) was injected into an amygdaloid nucleus on the other side of the rat. The rats were examined 3 days after the injection of the amyloid suspension and the phosphate buffered physiological saline solution.
(3) Compound 4 was dissolved in a 10 mg/mL ascorbic acid-containing physiological saline solution to obtain a sample solution (84 MBq/mL in radioactivity concentration). This solution was injected into the rat through the tail vein (dosage: 0.5 mL, dosed radioactivity: 42 MBq equivalent).
(4) Brain was removed 30 minutes after the injection to prepare a brain slice of 10 μm in thickness with a microtome (type: CM3050S, manufactured by LEICA). […]

[10] = [11C]-labeled, rats; cited from earlier work
amyloid = conditions: [125I]-labeled; cited from earlier work
[11] = TA100, without addition of S9mix
[12] = TA98, without addition of S9mix

For `FCCCOc1ccc(-c2cn3ccccc3n2)cc1` [Compound 3, 2-[4′-(3″-fluoropropoxy)phenyl]imidazo[1,2-a]pyridine], the Ames test judgment [1] was “negative”, the Mutagenicity ([2]; TA100, with addition of S9mix) was “Negative” and the Mutagenicity [2, 11] was “Negative”. The Mutagenicity ([3]; TA98, with addition of S9mix) was “Negative”, the Mutagenicity [3, 12] was “Negative” and the IC50 [4] was 36.6 nM. For the same molecule, the chromatographic logP ([5]; read-out: logPHPLC value) was 1.7.

For `CN(C)c1ccc(-c2nc3ccc(I)cc3o2)cc1` [IBOX, 6-iodo-2-[4′-(N,N-dimethylamino)phenyl]benzoxazole], the transfer into brain [6] is listed as “transferred into brain” and the “clearance from normal tissues” value [6] is listed as “insufficient in clearance from normal tissues”.

With `CN(C)c1ccc(-c2cn3cc([123I])ccc3n2)cc1` [[^123I]-IMPY, reference compound] the logPoctanol value [7] was 2.1, the “Radioactive concentration per unit weight in brain” value ([8]; after 2 min.) was 1.02 % ID/g and the “Radioactive concentration per unit weight in brain” value ([8]; after 5 min.) was 0.99 % ID/g. For the same molecule, the “Radioactive concentration per unit weight in brain” value ([8]; after 30 min.) was 0.20 % ID/g and the “Radioactive concentration per unit weight in brain” value ([8]; after 60 min.) was 0.08 % ID/g.

In the case of `CN(C)c1ccc(/C=C/c2ccc(I)cc2)cc1` [m-I-SB, (E)-4-dimethylamino-4′-iodostilbene], the transfer into brain [6] is given as “transferred into brain” and the “clearance from normal tissues” value [6] is given as “insufficient in clearance from normal tissues”.

With `Oc1ccc2nc(-c3ccc(OCCCF)cc3)cn2c1` [Compound 2, 2-[4′-(3″-fluoropropoxy)phenyl]-6-hydroxyimidazo[1,2-a]pyridine] the Ames test judgment [1] was “negative”, the Mutagenicity ([2]; TA100, with addition of S9mix) was “Negative” and the Mutagenicity [2, 11] was “Negative”. For the same molecule, the Mutagenicity ([3]; TA98, with addition of S9mix) was “Negative”, the Mutagenicity [3, 12] was “Negative” and the IC50 [4] was 30.5 nM.

In the case of `CN(C)c1ccc(-c2nc3ccc(I)cc3s2)cc1` [TZDM, 6-iodo-2-[4′-(N,N-dimethylamino)phenyl]benzothiazole], the transfer into brain [6] is given as “transferred into brain” and the “clearance from normal tissues” value [6] is given as “insufficient in clearance from normal tissues”.

In the case of “2-[4′-(3″-[^18F]fluoropropoxy)phenyl]-6-methoxyimidazo[1,2-a]pyridine [Compound 4]”, the logPoctanol value [7] is reported as 1.8, the “Radioactive concentration per unit weight in brain” value ([8]; after 2 min.) is reported as 1.36 % ID/g and the “Radioactive concentration per unit weight in brain” value ([8]; after 5 min.) is reported as 0.93 % ID/g. The “Radioactive concentration per unit weight in brain” value ([8]; after 30 min.) was 0.23 % ID/g, the “Radioactive concentration per unit weight in brain” value ([8]; after 60 min.) was 0.13 % ID/g and the “accumulation of radioactivity on intracerebral amyloid” value [9] was “possesses a property of accumulating on intracerebral amyloid”.

In the case of `CNc1ccc(/C=C/c2ccc(O)cc2)cc1` [SB-13, (E)-4-methylamino-4′-hydroxystilbene], the “clearance from normal tissues” value [10] is given as “it cannot be said that the clearance is sufficiently fast”.

`Nc1c(/N=N/c2ccc(-c3ccc(/N=N/c4cc(S(=O)(=O)O)c5ccccc5c4N)cc3)cc2)cc(S(=O)(=O)O)c2ccccc12` [Congo Red, reference compound] gave an IC50 [4] of over 1000 nM.

For `COc1ccc2nc(-c3ccc(OCCCF)cc3)cn2c1` [Compound 1, 2-[4′-(3″-fluoropropoxy)phenyl]-6-methoxyimidazo[1,2-a]pyridine], the Ames test judgment [1] was “negative”, the Mutagenicity ([2]; TA100, with addition of S9mix) was “Negative” and the Mutagenicity [2, 11] was “Negative”. For the same molecule, the Mutagenicity ([3]; TA98, with addition of S9mix) was “Negative”, the Mutagenicity [3, 12] was “Negative” and the IC50 [4] was 1.1 nM.

For `CN(C)c1ccc(-c2cn3cc(I)ccc3n2)cc1` [IMPY, 6-iodo-2-[4′-(N,N-dimethylamino)phenyl]imidazo[1,2-a]pyridine], the “clearance from normal tissues” value (amyloid) is given as “rapid clearance from normal tissues”, the “transfer to brain and accumulation at amyloid after administration” value (amyloid) is given as “transferring to brain and accumulating at amyloid” and the logPHPLC value [5] is given as 2.1.
